Each block holds one molecule with its values, some of them ahead of it. The source made the active and inactive calls. The rule behind the calls is not given here.
Assays:
[1] = molecular target: T1, Class 1 histone deacetylase (Homo sapiens, UniProt Q13547+O15379+Q92769+Q9BY41); test: Inhibition of class 1 HDAC in human CAL27 cells assessed as potentiation of cisplatin-induced cytotoxicity by measuring fold reduction in cisplatin IC50 at 5 uM preincubated for 48 hrs followed by cisplatin addition and measured after 72 hrs by MTT assay relative to cisplatin IC50; assay type: cell-based; details: CAL-27
T1 sequence (O15379 whole entry, looked up): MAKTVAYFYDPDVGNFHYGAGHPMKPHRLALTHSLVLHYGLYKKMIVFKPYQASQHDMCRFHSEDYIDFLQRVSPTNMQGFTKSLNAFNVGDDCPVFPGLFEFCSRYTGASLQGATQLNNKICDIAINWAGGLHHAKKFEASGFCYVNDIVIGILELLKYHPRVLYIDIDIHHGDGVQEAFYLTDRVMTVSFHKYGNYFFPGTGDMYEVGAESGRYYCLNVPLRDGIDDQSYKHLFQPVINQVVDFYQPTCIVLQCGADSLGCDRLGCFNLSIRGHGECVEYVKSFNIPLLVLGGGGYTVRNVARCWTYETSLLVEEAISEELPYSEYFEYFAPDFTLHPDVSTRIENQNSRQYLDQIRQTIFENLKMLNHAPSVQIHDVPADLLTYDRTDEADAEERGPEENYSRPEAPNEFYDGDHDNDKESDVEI
T1 sequence (Q13547 whole entry, looked up): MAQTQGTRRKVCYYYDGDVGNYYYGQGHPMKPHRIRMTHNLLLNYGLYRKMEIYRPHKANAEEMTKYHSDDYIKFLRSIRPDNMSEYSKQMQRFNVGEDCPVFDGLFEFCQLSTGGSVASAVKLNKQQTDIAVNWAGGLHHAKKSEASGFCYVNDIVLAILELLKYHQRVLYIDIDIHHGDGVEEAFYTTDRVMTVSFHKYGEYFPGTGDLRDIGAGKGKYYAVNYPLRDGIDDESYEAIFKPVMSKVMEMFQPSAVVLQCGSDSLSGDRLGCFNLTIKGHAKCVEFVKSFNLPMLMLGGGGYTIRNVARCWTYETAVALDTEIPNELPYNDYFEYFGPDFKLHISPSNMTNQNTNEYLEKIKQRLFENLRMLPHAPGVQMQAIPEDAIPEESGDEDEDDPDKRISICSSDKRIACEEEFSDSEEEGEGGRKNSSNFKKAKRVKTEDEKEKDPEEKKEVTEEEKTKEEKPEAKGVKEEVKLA
T1 sequence (Q92769 whole entry, looked up): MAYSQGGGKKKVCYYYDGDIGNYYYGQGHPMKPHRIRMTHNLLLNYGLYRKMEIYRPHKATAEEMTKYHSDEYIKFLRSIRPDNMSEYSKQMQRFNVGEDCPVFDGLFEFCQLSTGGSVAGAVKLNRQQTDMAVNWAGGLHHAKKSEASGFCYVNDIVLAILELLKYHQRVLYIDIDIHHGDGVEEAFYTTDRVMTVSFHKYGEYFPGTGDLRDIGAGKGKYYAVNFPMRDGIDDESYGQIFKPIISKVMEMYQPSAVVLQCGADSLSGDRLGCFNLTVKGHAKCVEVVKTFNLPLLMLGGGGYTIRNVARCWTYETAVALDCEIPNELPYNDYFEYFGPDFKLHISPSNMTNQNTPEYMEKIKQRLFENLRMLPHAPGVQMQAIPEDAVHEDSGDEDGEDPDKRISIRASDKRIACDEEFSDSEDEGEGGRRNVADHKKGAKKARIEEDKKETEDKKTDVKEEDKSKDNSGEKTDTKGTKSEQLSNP
T1 sequence (Q9BY41 whole entry, looked up): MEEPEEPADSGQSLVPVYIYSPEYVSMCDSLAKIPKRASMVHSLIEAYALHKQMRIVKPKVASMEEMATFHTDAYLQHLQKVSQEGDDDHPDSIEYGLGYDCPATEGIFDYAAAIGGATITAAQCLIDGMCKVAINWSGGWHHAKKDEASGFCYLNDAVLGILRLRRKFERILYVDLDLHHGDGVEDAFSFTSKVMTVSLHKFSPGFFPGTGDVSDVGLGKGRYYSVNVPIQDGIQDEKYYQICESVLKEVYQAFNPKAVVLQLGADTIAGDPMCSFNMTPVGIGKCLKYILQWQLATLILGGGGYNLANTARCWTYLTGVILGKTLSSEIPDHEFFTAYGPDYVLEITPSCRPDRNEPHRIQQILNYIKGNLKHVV

[2] = molecular target: T1, Class 1 histone deacetylase; test: Inhibition of class 1 HDAC in human CAL27 cells assessed as potentiation of cisplatin-induced cytotoxicity by measuring combination index at 5 uM in presence of 10 uM cisplatin by MTT assay based Chou-Talalay analysis; assay type: cell-based; details: CAL-27
[3] = molecular target: T1, Class 1 histone deacetylase; test: Inhibition of class 1 HDAC in human CAL27 cells assessed as potentiation of cisplatin-induced cytotoxicity by measuring combination index at 5 uM in presence of 0.1 uM cisplatin by MTT assay based Chou-Talalay analysis; assay type: cell-based; details: CAL-27
[4] = molecular target: T1, Class 1 histone deacetylase; test: Inhibition of class 1 HDAC in human Cal27CisR cells assessed as potentiation of cisplatin-induced cytotoxicity by measuring combination index at 5 uM in presence of 10 uM cisplatin by MTT assay based Chou-Talalay analysis; assay type: cell-based
[5] = molecular target: T1, Class 1 histone deacetylase; test: Inhibition of class 1 HDAC in human Cal27CisR cells assessed as potentiation of cisplatin-induced cytotoxicity by measuring combination index at 5 uM in presence of 32 uM cisplatin by MTT assay based Chou-Talalay analysis; assay type: cell-based
[6] = molecular target: T1, Class 1 histone deacetylase; test: Inhibition of class 1 HDAC in human CAL27 cells assessed as potentiation of cisplatin-induced apoptosis by measuring increase in accumulation at sub-G1 phase at 5 uM preincubated for 48 hrs followed by cisplatin addition and measured after 24 hrs by propidium iodide staining based flow cytometry; assay type: cell-based; details: CAL-27
[7] = molecular target: T1, Class 1 histone deacetylase; test: Inhibition of class 1 HDAC in human Cal27CisR cells assessed as potentiation of cisplatin-induced apoptosis by measuring increase in accumulation at sub-G1 phase at 5 uM preincubated for 48 hrs followed by cisplatin addition and measured after 24 hrs by propidium iodide staining based flow cytometry; assay type: cell-based
[8] = molecular target: T1, Class 1 histone deacetylase; test: Inhibition of class 1 HDAC in human Cal27CisR cells assessed as increase in histone H3 acetylation at 5 uM measured after 24 hrs by immunoblot analysis; assay type: cell-based
[9] = molecular target: T1, Class 1 histone deacetylase; test: (§1) Inhibition of class 1 HDAC in human CAL27 cells assessed as potentiation of cisplatin-induced apoptosis assessed as increase in caspase-3/7 activation at 5 uM preincubated for 48 hrs followed by cisplatin addition and measured after 24 hrs by CellEvent caspase 3/7 green detection reagent/Hoechst 33342 staining based imaging analysis; assay type: cell-based; details: CAL-27
[10] = molecular target: T1, Class 1 histone deacetylase; test: as §1, with “in human Cal27CisR cells assessed” for “in human CAL27 cells assessed”, “24 hrs in presence of pan caspase inhibitor QVD by CellEvent” for “24 hrs by CellEvent”; assay type: cell-based
CAL-27 [11] = test: Induction of apoptosis in human CAL27 cells assessed as accumulation at sub-G1 phase at 100 uM measured after 48 hrs by propidium iodide staining based flow cytometry relative to control; assay type: functional
[12] = molecular target: T1, Class 1 histone deacetylase; details: CAL-27
Description: Inhibition of class 1 HDAC in human CAL27 cells assessed as potentiation of cisplatin-induced cytotoxicity by measuring combination index at 0.25 uM in presence of 0.32 uM cisplatin by MTT assay based Chou-Talalay analysis

[13] = molecular target: T1, Class 1 histone deacetylase; details: CAL-27; remark: listed apart in the source
Description: Inhibition of class 1 HDAC in human CAL27 cells assessed as potentiation of cisplatin-induced cytotoxicity by measuring combination index at 0.1 uM in presence of 3.2 uM cisplatin by MTT assay based Chou-Talalay analysis

[14] = molecular target: T1, Class 1 histone deacetylase
Description: Inhibition of class 1 HDAC in human Cal27CisR cells assessed as potentiation of cisplatin-induced cytotoxicity by measuring combination index at 0.10 uM in presence of 3.2 uM cisplatin by MTT assay based Chou-Talalay analysis

[15] = molecular target: T1, Class 1 histone deacetylase; remark: listed apart in the source
Description: Inhibition of class 1 HDAC in human Cal27CisR cells assessed as potentiation of cisplatin-induced cytotoxicity by measuring combination index at 0.25 uM in presence of 10 uM cisplatin by MTT assay based Chou-Talalay analysis

CAL-27 [16] = test: Induction of apoptosis in human CAL27 cells assessed as accumulation at sub-G1 phase at […] after 48 hrs by propidium iodide staining based flow cytometry relative to control; assay type: functional
[17] = molecular target: T1, Class 1 histone deacetylase; test: Inhibition of class 1 HDAC in human Cal27CisR cells assessed as potentiation of cisplatin-induced apoptosis by measuring increase in accumulation at sub-G1 phase at […] preincubated for 48 hrs followed by cisplatin addition and measured after 24 hrs by propidium iodide staining based flow cytometry; assay type: cell-based
[18] = molecular target: T1, Class 1 histone deacetylase; test: Inhibition of class 1 HDAC in human CAL27 cells assessed as increase in histone H3 acetylation at […] measured after 24 hrs by immunoblot analysis; assay type: cell-based; details: CAL-27
[19] = molecular target: T1, Class 1 histone deacetylase; test: as §1, with “Cal27CisR” for “CAL27”, “5 uM” left out; assay type: cell-based

- inhibition [6]: Active
- inhibition [7]: Active
- inhibition [8]: Active
- inhibition [9]: Active
- inhibition [10]: inactive
Compound: Cc1cc(C)cc(C(=O)N(CCCCCC(=O)Nc2cc(-c3ccccc3)ccc2N)CC(=O)NCc2ccccc2)c1
- Ratio IC50 [1]: 5.26
- CI [2]: 0.09
- CI [3]: < 0.2
- CI [4]: 0.1
- CI [5]: 0.1

- CI [12]: 0.39
- CI [13]: 0.37
- CI [14]: < 0.2
- CI [15]: 0.23
Compound: CN(C)c1ccc(C(=O)N(CC(=O)NCc2ccccc2)Cc2ccc(C(=O)Nc3ccccc3N)cc2)cc1
- Activity (CAL-27 [11]): 31%

Compound: Cc1cc(C)cc(C(=O)N(CC(=O)NCc2ccccc2)Cc2ccc(C(=O)Nc3cc(-c4ccccc4)ccc3N)cc2)c1
- Activity (CAL-27 [16]): 6.27%
- inhibition [17]: Active
- inhibition [18]: Active
- inhibition [19]: Active

Reference: ChEMBL document CHEMBL4334526, “Synthesis of Peptoid-Based Class I-Selective Histone Deacetylase Inhibitors with Chemosensitizing Properties” (J Med Chem, 2019)
